In patent US20230250106A1, “COMPOUNDS AND COMPOSITIONS FOR TREATING CONDITIONS ASSOCIATED WITH STING ACTIVITY” (IFM Due, Inc., priority 2020, published 2023):

The compounds below were run on STING pathway (assay: STING reporter assay: luciferase reporter activity in THP1-Dual KO-IFNAR2 cells activated with 2'3'cGAMP). Details: Homo sapiens, 2'3'cGAMP 15 μM, 24 h, read-out: hSTING EC50.
Type: cell-based
How it was run: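 THP1-Dual KO-IFNAR2 cells were exposed to compounds at 0.0017-100 μM final and stimulated with 2′3′cGAMP (15 μM final) delivered with Lipofectamine 2000. After 24 h at 37 °C, secreted luciferase in the supernatant was read with QUANTI-Luc Plus, and EC50 values were calculated.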

EC50 [µM] | SMILES
0.2 to 1 | CC(C)Oc1ccc(C(=O)Nc2c[nH]c3cc(F)c(F)cc23)cc1C#N [Compound 120, 3-cyano-N-(5,6-difluoro-1H-indol-3-yl)-4-(propan-2-yloxy)benzamide]
1 to 5 | O=C(Nc1c[nH]c2cc(F)c(F)cc12)c1ccc(OC2COC2)cc1 [Compound 269, N-(5,6-difluoro-1H-indol-3-yl)-4-(oxetan-3-yloxy)benzamide]
0.2 to 1 | C[C@H](c1ccc(C(=O)Nc2c[nH]c3cc(F)c(F)cc23)cc1F)N1CC(F)(F)C1 (single isomer, unassigned) [Compound 245, (R or S)—N-(5,6-difluoro-1H-indol-3-yl)-4-(1-(3,3-difluoroazetidin-1-yl)-1l3-ethyl)-3-fluorobenzamide]
0.2 to 1 | O=C(Nc1c[nH]c2cc(F)c(F)cc12)c1cnc(N2CC(F)(F)C2)c(Cl)c1 [Compound 137, 5-chloro-N-(5,6-difluoro-1H-indol-3-yl)-6-(3,3-difluoroazetidin-1-yl)nicotinamide]
1 to 5 | COC1(C)CN(c2ncc(C(=O)Nc3c[nH]c4cc(F)c(F)cc34)cc2C)C1 [Compound 183, N-(5,6-difluoro-1H-indol-3-yl)-6-(3-methoxy-3-methylazetidin-1-yl)-5-methylnicotinamide]
1 to 5 | O=C(Nc1c[nH]c2cc(F)c(F)cc12)c1ccnc(NCCCC(F)(F)F)n1 [Compound 164, N-(5,6-difluoro-1H-indol-3-yl)-2-((4,4,4-trifluorobutyl)amino)pyrimidine-4-carboxamide]
0.2 to 1 | Cc1cc(N2CC(F)(F)C2)ncc1C(=O)Nc1c[nH]c2ccc(Cl)cc12 [Compound 272, N-(5-chloro-1H-indol-3-yl)-6-(3,3-difluoroazetidin-1-yl)-4-methylnicotinamide]
1 to 5 | O=C(Nc1c[nH]c2cc(F)c(F)cc12)c1ccn(Cc2ccc(C(F)(F)F)cc2)c(=O)n1 [Compound 193, N-(5,6-difluoro-1H-indol-3-yl)-2-oxo-1-[[4-(trifluoromethyl)phenyl]methyl]pyrimidine-4-carboxamide]
0.2 to 1 | O=C(Nc1c[nH]c2cc(F)c(F)cc12)c1cnc(NCCC(F)(F)F)c(F)c1 [Compound 242, N-(5,6-difluoro-1H-indol-3-yl)-5-fluoro-6-((3,3,3-trifluoropropyl)amino)nicotinamide]
0.2 to 1 | O=C(Nc1c[nH]c2cc(F)c(F)cc12)c1ccc(OC(F)(F)F)cc1 [Compound 135, N-(5,6-difluoro-1H-indol-3-yl)-4-(trifluoromethoxy)benzamide]
0.2 to 1 | COCCNc1cc(C(=O)Nc2c[nH]c3cc(F)c(F)cc23)ccc1C(F)(F)F [Compound 236, N-(5,6-difluoro-1H-indol-3-yl)-3-((2-methoxyethyl)amino)-4-(trifluoromethyl)benzamide]
0.04 to 0.2 | O=C(Nc1c[nH]c2cc(F)c(F)cc12)c1cnc(N2CCC(OC(F)(F)F)CC2)cn1 [Compound 182, N-(5,6-difluoro-1H-indol-3-yl)-5-(4-(trifluoromethoxy)piperidin-1-yl)pyrazine-2-carboxamide]
0.2 to 1 | O=C(Nc1c[nH]c2cc(F)c(F)cc12)c1ccc(C(O)C2CC(F)(F)C2)cc1 (centres unmarked) [Compound 233, N-(5,6-difluoro-1H-indol-3-yl)-4-((3,3-difluorocyclobutyl)(hydroxy)methyl)benzamide]
0.2 to 1 | O=C(Nc1c[nH]c2cc(F)c(F)cc12)c1ccc(CN2CC3(C2)CC(F)(F)C3)c(F)c1 [Compound 237, N-(5,6-difluoro-1H-indol-3-yl)-4-((6,6-difluoro-2-azaspiro[3.3]heptan-2-yl)methyl)-3-fluorobenzamide]
0.2 to 1 | O=C(Nc1c[nH]c2cc(F)c(F)cc12)c1cnc(C2CC3(CC(OCC(F)(F)F)C3)C2)c(F)c1 (centres unmarked) [Compound 222, N-(5,6-difluoro-1H-indol-3-yl)-5-fluoro-6-(6-(2,2,2-trifluoroethoxy)spiro[3.3]heptan-2-yl)nicotinamide]
0.2 to 1 | O=C(Nc1c[nH]c2cc(F)c(F)cc12)c1ccc(OCC(F)F)cc1 [Compound 174, N-(5,6-difluoro-1H-indol-3-yl)-4-(2,2-difluoroethoxy)benzamide]
0.2 to 1 | O=C(Nc1c[nH]c2cc(F)c(F)cc12)c1ccc(OCC2CC2)cc1 [Compound 130, 4-(cyclopropylmethoxy)-N-(5,6-difluoro-1H-indol-3-yl)benzamide]

Second part, the compound before the results:

SMILES | EC50 [µM]
O=C(Nc1c[nH]c2cc(F)c(F)cc12)c1cccc(C2(O)CCC(F)(F)CC2)c1 [Compound 251, 3-(4,4-difluoro-1-hydroxycyclohexyl)-N-(5,6-difluoro-1H-indol-3-yl)benzamide] | 1 to 5
CCOc1cc(F)c(C(=O)Nc2c[nH]c3cc(F)c(F)cc23)c(F)c1 [Compound 199, N-(5,6-difluoro-1H-indol-3-yl)-4-ethoxy-2,6-difluorobenzamide] | 0.2 to 1
O=C(Nc1c[nH]c2cc(F)c(F)cc12)c1cnc(CN2CCC(F)(F)CC2)c(Cl)c1 [Compound 254, 5-chloro-N-(5,6-difluoro-1H-indol-3-yl)-6-((4,4-difluoropiperidin-1-yl)methyl)nicotinamide] | 0.2 to 1
O=C(Nc1c[nH]c2cc(F)c(F)cc12)c1ccc(OC(F)F)cc1 [Compound 116, N-(5,6-difluoro-1H-indol-3-yl)-4-(difluoromethoxy)benzamide] | 0.2 to 1
CCCCOc1ccc(C(=O)Nc2c[nH]c3cc(F)c(F)cc23)cc1 [Compound 132, 4-butoxy-N-(5,6-difluoro-1H-indol-3-yl)benzamide] | 0.2 to 1
O=C(Nc1c[nH]c2cc(F)c(F)cc12)c1ccc(CCC(F)(F)F)c(F)c1 [Compound 176, N-(5,6-difluoro-1H-indol-3-yl)-3-fluoro-4-(3,3,3-trifluoropropyl)benzamide] | 0.2 to 1
Cc1cc(OC(F)(F)F)cc(C(=O)Nc2c[nH]c3cc(F)c(F)cc23)c1 [Compound 119, N-(5,6-difluoro-1H-indol-3-yl)-3-methyl-5-(trifluoromethoxy)benzamide] | 0.2 to 1
CC(O)c1cc(C(=O)Nc2c[nH]c3cc(F)c(F)cc23)cc(C(F)(F)F)c1 (centres unmarked) [Compound 275, N-(5,6-difluoro-1H-indol-3-yl)-3-(1-hydroxyethyl)-5-(trifluoromethyl)benzamide] | 1 to 5
O=C(Nc1c[nH]c2cc(F)c(F)cc12)c1cnc(NCCC(F)(F)F)c(Cl)c1 [Compound 239, 5-chloro-N-(5,6-difluoro-1H-indol-3-yl)-6-((3,3,3-trifluoropropyl)amino)nicotinamide] | 0.2 to 1
O=C(Nc1c[nH]c2cc(F)c(F)cc12)c1ccc(C2(O)CCC(F)(F)CC2)c(F)c1 [Compound 258, 4-(4,4-difluoro-1-hydroxycyclohexyl)-N-(5,6-difluoro-1H-indol-3-yl)-3-fluorobenzamide] | 0.2 to 1
CC(C)n1cc(-c2ccc3[nH]cc(NC(=O)c4ccc(OCCCC(F)(F)F)cc4)c3c2)cn1 [Compound 180, N-(5-(1-isopropyl-1H-pyrazol-4-yl)-1H-indol-3-yl)-4-(4,4,4-trifluorobutoxy)benzamide] | 0.2 to 1
Cc1ccc(C(=O)Nc2c[nH]c3cc(F)c(F)cc23)cc1OCCCC(F)(F)F [Compound 172, N-(5,6-difluoro-1H-indol-3-yl)-4-methyl-3-(4,4,4-trifluorobutoxy)benzamide] | 0.2 to 1
CC(C)(CO)CCCNc1ncc(C(=O)Nc2c[nH]c3cc(F)c(F)cc23)cc1Cl [Compound 209, 5-chloro-N-(5,6-difluoro-1H-indol-3-yl)-6-((5-hydroxy-4,4-dimethylpentyl)amino)nicotinamide] | 0.2 to 1
O=C(Nc1c[nH]c2cc(F)c(F)cc12)c1cnc(OCCCC(F)(F)F)cn1 [Compound 148, N-(5,6-difluoro-1H-indol-3-yl)-5-(4,4,4-trifluorobutoxy)pyrazine-2-carboxamide] | 0.2 to 1
O=C(Nc1c[nH]c2c(F)cncc12)c1ccc(OCCCC(F)(F)F)c(F)c1 [Compound 111, 3-fluoro-N-(7-fluoro-1H-pyrrolo[3,2-c]pyridin-3-yl)-4-(4,4,4-trifluorobutoxy)benzamide] | 1 to 5
O=C(Nc1c[nH]c2cc(F)c(F)cc12)c1ccc(OCCC(F)(F)F)cc1 [Compound 141, N-(5,6-difluoro-1H-indol-3-yl)-4-(3,3,3-trifluoropropoxy)benzamide] | 0.2 to 1
CC(C)Oc1ccc(C(=O)Nc2c[nH]c3cc(F)c(F)cc23)cc1C(F)(F)F [Compound 126, N-(5,6-difluoro-1H-indol-3-yl)-4-(propan-2-yloxy)-3-(trifluoromethyl)benzamide] | 0.2 to 1
O=C(Nc1c[nH]c2cc(F)c(F)cc12)c1cnc(OCCC(F)(F)F)c(F)c1 [Compound 140, N-(5,6-difluoro-1H-indol-3-yl)-5-fluoro-6-(3,3,3-trifluoropropoxy)nicotinamide] | 0.2 to 1
O=C(NCc1ccc(C(=O)Nc2c[nH]c3cc(F)c(F)cc23)cc1)OCc1cccnc1 [Compound 123, (pyridin-3-yl)methyl N-({4-[(5,6-difluoro-1H-indol-3-yl)carbamoyl]phenyl}methyl)carbamate] | 1 to 5
O=C(Nc1c[nH]c2ccc(Cl)cc12)c1ccc(OCCCC(F)(F)F)c(F)c1 [Compound 153, N-(5-chloro-1H-indol-3-yl)-3-fluoro-4-(4,4,4-trifluorobutoxy)benzamide] | 0.2 to 1
O=C(Nc1c[nH]c2cc(F)c(F)cc12)c1ccc(OCC(F)(F)F)c(F)c1 [Compound 134, N-(5,6-difluoro-1H-indol-3-yl)-3-fluoro-4-(2,2,2-trifluoroethoxy)benzamide] | 0.2 to 1
